Measurements from publication PMC8404221 (European journal of pharmaceutical sciences : official …, 2021).
“And” between values parts separate entries of the source, which are not always exact repeats. Equal values may be shown once. Read-outs that look alike come from different tables or passages of the source. Marks after values point to notes of the source that are not given here.

Legend:
[1] = test system: MAO-A; details: read-out: MAO-A IC50, published, ref Bálint et al., 2017, Clarke and Ramsay, 2011, Herraiz and Brandt, 2014, Herraiz and Chaparro, 2005, Ionescu et al., 2012, Kim et al., 1997, Rahman and Rahmatullah, 2010, Reniers et al., Rommelspacher et al., 1994, Rüben et al., 2015, Santillo et al., Wurzlbauer et al., 2020; cited from earlier work
[2] = test system: H4 cells; assay: High content imaging assay; type: cell-based, human; details: 72 h, read-out: H4 (nuclear count) IC50
[3] = test system: H4 cells; assay: PrestoBlue cell proliferation/viability assay; type: cell-based, human; details: 72 h; for IC50: Homo sapiens, read-out: H4 (cell proliferation) IC50
[4] = target: T1, DYRK1A (Homo sapiens, UniProt Q13627); assay: biochemical; type: binding; details: for inhibition at 6.7 µM: read-out: DYRK1A inhibition in pilot HTS
[5] = target: T1, DYRK1A; details: read-out: DYRK1A IC50, published values, ref Adayev et al., 2011, Bain et al., 2007, Bálint et al., 2017, Bruel et al., 2014, Foucourt et al., Göckler et al., 2009, Grabher et al., 2012, Kim et al., 2016, Kumar et al., 2018, Liu et al., 2017b, PubChem; cited from earlier work
[6] = test system: U87 cells; assay: PrestoBlue cell proliferation/viability assay; type: cell-based, human; details: 72 h; for U87 (cell proliferation) % inhibition at highest dose tested: PrestoBlue; for IC50: Homo sapiens, U-87 MG, read-out: U87 (cell proliferation) IC50
[7] = test system: U87 cells; assay: High content imaging assay; type: cell-based, human; details: 72 h; for inhibition at 66 µM / IC50: Homo sapiens, U-87 MG; for inhibition at 66 µM: read-out: U87 (nuclear count) % inhibition at highest dose tested; for IC50: read-out: U87 (nuclear count) IC50; for U87 (nuclear count) % inhibition at highest dose tested: Hoechst 33342 high content imaging, highest dose tested (66 μM)
[8] = target: T1, DYRK1A; assay: biochemical; type: biochemical
[9] = target: T2, Monoamine oxidase-A (MAO-A) (Homo sapiens, UniProt P21397); assay: biochemical; type: biochemical
T2 sequence (P21397 1-527): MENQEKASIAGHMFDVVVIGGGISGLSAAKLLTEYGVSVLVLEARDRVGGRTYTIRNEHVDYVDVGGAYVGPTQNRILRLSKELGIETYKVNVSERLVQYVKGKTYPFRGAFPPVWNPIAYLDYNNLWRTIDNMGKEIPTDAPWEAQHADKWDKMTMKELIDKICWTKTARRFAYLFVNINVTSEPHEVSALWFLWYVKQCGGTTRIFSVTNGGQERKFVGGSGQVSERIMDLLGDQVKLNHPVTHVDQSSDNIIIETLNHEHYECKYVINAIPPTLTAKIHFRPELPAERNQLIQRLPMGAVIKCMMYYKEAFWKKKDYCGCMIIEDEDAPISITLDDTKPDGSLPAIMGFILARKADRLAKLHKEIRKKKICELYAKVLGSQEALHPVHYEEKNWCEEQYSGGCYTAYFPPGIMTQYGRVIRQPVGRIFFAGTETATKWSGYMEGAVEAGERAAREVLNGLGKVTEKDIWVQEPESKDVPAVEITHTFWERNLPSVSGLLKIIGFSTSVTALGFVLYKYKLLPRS

[10] = test system: U87 human glioblastoma cells; assay: U87 glioma tumor xenograft in nude NU/J mice; type: in vivo; details: for Effect on body weight: up to 21 days; for Tremor activity in treated mice: anecdotal observation, duration of the study
[11] = target: T3, CLK1 (Homo sapiens, UniProt P49759); assay: InCELL Hunter / PathHunter in-cell target engagement assay; type: cell-based; details: for Effect on β-gal activity (CLK1 target engagement): 0.5, 5 and 50 μM
T3 sequence (P49759 whole entry): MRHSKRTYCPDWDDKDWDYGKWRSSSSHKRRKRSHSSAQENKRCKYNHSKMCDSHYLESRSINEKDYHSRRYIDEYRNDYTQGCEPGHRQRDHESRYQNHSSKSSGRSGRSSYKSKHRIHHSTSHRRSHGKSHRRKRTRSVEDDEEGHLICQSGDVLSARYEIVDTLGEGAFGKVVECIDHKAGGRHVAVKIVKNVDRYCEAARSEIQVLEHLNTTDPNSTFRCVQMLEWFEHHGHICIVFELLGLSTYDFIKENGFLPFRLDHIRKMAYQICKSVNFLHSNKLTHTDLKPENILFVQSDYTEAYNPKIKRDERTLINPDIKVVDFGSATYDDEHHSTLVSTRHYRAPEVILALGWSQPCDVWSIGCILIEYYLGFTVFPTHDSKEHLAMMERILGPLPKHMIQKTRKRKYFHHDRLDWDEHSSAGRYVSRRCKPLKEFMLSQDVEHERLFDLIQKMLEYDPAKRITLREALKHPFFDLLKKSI

[12] = test system: panel of 10 kinases; assay: Kinase selectivity panel; details: 10 μM
[13] = target: PIM1 (Homo sapiens, UniProt P11309); assay: Kinase selectivity panel; details: 10 μM, n = 2
PIM1, sequence (P11309 whole entry): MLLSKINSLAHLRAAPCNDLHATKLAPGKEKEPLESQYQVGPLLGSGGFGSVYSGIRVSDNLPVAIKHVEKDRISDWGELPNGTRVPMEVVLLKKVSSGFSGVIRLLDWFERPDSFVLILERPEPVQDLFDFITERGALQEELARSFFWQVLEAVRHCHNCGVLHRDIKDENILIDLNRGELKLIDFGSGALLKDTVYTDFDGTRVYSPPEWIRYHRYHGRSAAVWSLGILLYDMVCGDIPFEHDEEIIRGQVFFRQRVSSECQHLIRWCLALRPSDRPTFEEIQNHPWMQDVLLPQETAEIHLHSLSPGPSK

[14] = target: CK1α1 (Homo sapiens, UniProt P48729); assay: Kinase selectivity panel; details: 10 μM, n = 2
CK1α1, sequence (P48729 whole entry): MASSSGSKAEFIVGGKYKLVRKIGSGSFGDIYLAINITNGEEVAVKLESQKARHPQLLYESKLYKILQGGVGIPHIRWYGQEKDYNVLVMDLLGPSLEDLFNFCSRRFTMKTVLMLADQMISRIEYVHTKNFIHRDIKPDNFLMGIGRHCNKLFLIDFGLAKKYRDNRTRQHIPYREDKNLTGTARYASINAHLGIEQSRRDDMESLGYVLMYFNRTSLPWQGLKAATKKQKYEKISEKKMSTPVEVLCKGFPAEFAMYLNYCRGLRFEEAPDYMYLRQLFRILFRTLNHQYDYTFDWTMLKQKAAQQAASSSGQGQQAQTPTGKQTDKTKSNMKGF

[15] = target: T4, DYRK2 (Homo sapiens, UniProt Q92630); assay: Kinase selectivity panel; details: 10 μM, n = 2
T4 sequence (Q92630 1-601): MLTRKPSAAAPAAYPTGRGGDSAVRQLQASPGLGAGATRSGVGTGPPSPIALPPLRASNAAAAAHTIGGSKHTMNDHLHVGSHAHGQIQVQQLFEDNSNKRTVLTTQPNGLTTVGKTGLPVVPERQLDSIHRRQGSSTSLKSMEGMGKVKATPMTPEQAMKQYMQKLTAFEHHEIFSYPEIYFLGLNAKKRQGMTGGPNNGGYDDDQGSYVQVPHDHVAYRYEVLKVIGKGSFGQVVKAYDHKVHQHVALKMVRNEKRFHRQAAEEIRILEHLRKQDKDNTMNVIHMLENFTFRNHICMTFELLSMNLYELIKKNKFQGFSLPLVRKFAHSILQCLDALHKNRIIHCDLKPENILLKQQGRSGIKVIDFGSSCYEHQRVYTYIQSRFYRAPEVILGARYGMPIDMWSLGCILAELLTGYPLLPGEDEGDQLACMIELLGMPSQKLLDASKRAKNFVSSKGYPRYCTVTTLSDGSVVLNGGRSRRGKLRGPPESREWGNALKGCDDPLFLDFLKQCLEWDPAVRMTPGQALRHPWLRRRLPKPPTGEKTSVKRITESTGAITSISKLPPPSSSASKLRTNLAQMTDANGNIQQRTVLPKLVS

[16] = target: T3, CLK1; assay: Kinase selectivity panel; type: biochemical; details: 10 μM, n = 2
[17] = target: T1, DYRK1A; assay: Kinase selectivity panel; type: biochemical; details: 10 μM, n = 2
[18] = target: DYRK1B (Homo sapiens, UniProt Q9Y463); assay: Kinase selectivity panel; type: biochemical; details: 10 μM, n = 2
DYRK1B, sequence (Q9Y463 whole entry): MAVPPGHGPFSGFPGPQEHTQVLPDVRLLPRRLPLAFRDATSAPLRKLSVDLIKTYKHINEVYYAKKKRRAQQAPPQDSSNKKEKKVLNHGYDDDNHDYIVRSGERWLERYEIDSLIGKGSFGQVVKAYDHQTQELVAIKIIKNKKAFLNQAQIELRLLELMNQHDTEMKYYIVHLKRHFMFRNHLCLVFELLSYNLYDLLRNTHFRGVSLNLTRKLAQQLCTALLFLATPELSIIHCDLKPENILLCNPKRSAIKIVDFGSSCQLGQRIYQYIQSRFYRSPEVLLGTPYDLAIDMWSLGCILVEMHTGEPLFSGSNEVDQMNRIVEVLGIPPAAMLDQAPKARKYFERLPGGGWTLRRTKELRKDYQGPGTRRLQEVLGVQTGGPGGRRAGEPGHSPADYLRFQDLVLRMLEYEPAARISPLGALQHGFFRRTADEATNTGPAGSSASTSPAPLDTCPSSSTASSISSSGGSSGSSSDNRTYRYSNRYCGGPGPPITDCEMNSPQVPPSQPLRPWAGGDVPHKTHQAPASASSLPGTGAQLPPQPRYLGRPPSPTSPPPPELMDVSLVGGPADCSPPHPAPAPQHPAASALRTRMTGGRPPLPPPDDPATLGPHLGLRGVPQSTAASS

[19] = DYRK1A IC50, TR-FRET, 10-point 2-fold dose response
[20] = using TR-FRET DYRK1A IC50 values

SMILES | IC50 [1] | IC50 ([2]; Homo sapiens) | IC50 [3] | IC50 [4, 19] | inhibition at 6.7 µM [4] | IC50 [5] | U87 (cell proliferation) % inhibition at highest dose tested [6] | inhibition at 66 µM [7] | IC50 [8] | IC50 ([9]; MAO-A IC50, MAO-A Glo) | DYRK1A:MAO-A (IC50 ratio) [9, 20] | also measured
COc1ccc2c3c([nH]c2c1)C(C)=NCC3 [Harmaline, harmaline] | 5 to 20 nM | 14900 nM | 19600 nM | 2350 nM | 81% | 1240 to 4590 nM | 14% ^c | ~66% | 790 nM | 90 nM | 26.1 | Fold more potent on MAO-A over DYRK1A ([9]; DYRK1A TR-FRET vs MAO-A): ~ 25 fold and ~ 30 fold; IC50 ([9]; MAO-A IC50, MAO-Glo): 60 to 90 nM
Cc1[nH]ccc2c1[nH]c1cc(=O)ccc12 [Harmol, harmol] | 530 nM | 20000 nM | 10900 nM | 100 nM | 78% | 44 to 298 nM |  |  | 16 nM | 500 nM | 0.2 | Tumor inhibition rate ([10]; 15 mg/kg i.p. q.d.): 28.2%; Effect on body weight ([10]; 15 mg/kg i.p. q.d.): did not lead to significant differences in body weight; Tumor inhibition rate ([10]; 60 mg/kg i.p. q.d.): 38.1%; Effect on body weight ([10]; 60 mg/kg i.p. q.d.): did not lead to significant differences in body weight; Survival (Kaplan-Meier) compared to vehicle ([10]; 60 mg/kg i.p. q.d., not statistically significant): trend towards improved survival; Tremor activity in treated mice [10]: no tremor activity; Tumor growth ([10]; high dose (60 mg/kg), day 21, not reaching significance): modest decrease in tumor growth; IC50 ([4]; DYRK1A IC50, TR-FRET, dose response): 70 to 100 nM; Effect on β-gal activity (CLK1 target engagement) [11]: increase in β-gal activity; IC50 [6]: 19100 nM; Number of the 10 kinases displaying 50% or greater inhibition [12]: 7; IC50 [7]: 20800 nM; Fold more potent IC50 with 33P-ATP assay versus TR-FRET ([8]; DYRK1A): 6–7 fold; Fold weaker than harmine for MAO-A [9]: 10 fold
COc1ccc2c(c1)[nH]c1c(C)nccc12 [Harmine, harmine, reference compound] | 3 to 107 nM | 14900 nM | 4900 nM |  | 74% |  |  |  |  |  |  | Tumor inhibition rate ([10]; 15 mg/kg i.p. q.d.): 16.5%; Effect on body weight ([10]; 15 mg/kg i.p. q.d.): did not lead to significant differences in body weight; Tremor activity in treated mice [10]: no tremor activity; Reduction in enzyme activity, PIM1 [13]: ≥ 70%; Reduction in enzyme activity, CK1α1 [14]: ≥ 70%; Effect on β-gal activity (CLK1 target engagement) [11]: increase in β-gal activity; IC50 [6]: > 25000 nM; IC50 [7]: 17600 nM
CN[C@@H]1C[C@H]2O[C@@](C)([C@@H]1OC)n1c3ccccc3c3c4c(c5c6ccccc6n2c5c31)C(=O)NC4 [Staurosporine, reference compound] |  |  |  |  |  |  |  |  |  |  |  | MAO-A IC50, MAO-A Glo [9]: No inhibition
COc1ccc2c3c([nH]c2c1)[C@@H](C)NCC3 [Tetrahydroharmine, tetrahydroharmine] |  |  |  |  |  | 2990 nM | No inhibition ^c |  |  |  | 6.2 | IC50 ([2]; Hoechst 33342 high content imaging): 26900 nM; H4 (cell proliferation) % inhibition at highest dose tested ([3]; PrestoBlue, highest dose tested): 38%^c; IC50 ([4]; read-out: DYRK1A IC50, TR-FRET, 10-point 2-fold dose response): 9410 nM; IC50 ([4]; read-out: DYRK1A IC50, TR-FRET, 10-point 2-fold dose response, listed as tetrahydroharmine): 9400 nM; Reduction in enzyme activity, DYRK2 [15]: minimal effect; U87 (nuclear count) % inhibition at highest dose tested [7]: ~50% ^c; IC50 ([8]; read-out: DYRK1A IC50, 33P-ATP, casein substrate, ATP 10 μM, data generated by Reaction Biology): 6420 nM; IC50 ([9]; read-out: MAO-A IC50, MAO-A Glo): 1520 nM
Cc1nccc2c1[nH]c1ccccc12 [Harmane, harmane] | 29 to 337 nM | 17100 nM | > 25000 nM | 2680 nM | 71% | 1820 nM | 30% ^c | ~50% | 1000 nM | 640 nM | 4.2 | 
CC1=NCCc2c1[nH]c1cc(O)ccc21 [Harmalol, harmalol] | 153 nM | 25200 nM | 23700 nM | 630 nM | 79% |  | 37% ^c | < 50% | 180 nM | 660 nM |  | Reduction in enzyme activity, CLK1 [16]: ~100%; Reduction in enzyme activity, DYRK1A (panel) [17]: ~100%; Fold lower activity against DYRK1A than harmol [4]: ~ 6 fold; Reduction in enzyme activity, DYRK1B [18]: ~100%; DYRK1A:MAO-A (IC50 ratio) [9]: 1.0
c1ccc2c(c1)[nH]c1cnccc12 [Norharmane, norharmane] | […] | 29100 nM | > 25000 nM | 5460 nM |  | 8750 nM | No inhibition ^c |  | 3190 nM |  |  | U87 (nuclear count) % inhibition at highest dose tested [7]: No inhibition ^c
COC(=O)[C@@]1(O)C[C@H]2O[C@]1(C)n1c3ccccc3c3c4c(c5c6ccccc6n2c5c31)C(=O)NC4 [K252a] |  |  |  |  |  |  |  |  |  |  |  | EC50 ([11]; read-out: CLK1 cellular target engagement EC50, positive control inhibitor): 8.7 nM
